Patent US20130274174A1, “THERAPEUTIC COMBINATION OF DAPTOMYCIN AND PROTEIN SYNTHESIS INHIBITOR ANTIBIOTIC, AND METHODS OF USE” (priority 2011, published 2013)
Values after ≈ are worked out from the molar mass of the structure shown. Like-named read-outs stand apart in the source and are kept apart here.

Key:
[1] = system: S. aureus and enterococci; conditions: Entenza et al. 2010; cited from earlier work
S. aureus MW2 (NRS123) = experiment: microbe, parasite or virus in culture; format: cell-based, Staphylococcus aureus; conditions: Staphylococcus aureus
Description: S. aureus strains MW2 (NARSA collection clinical MRSA isolate, NRS123) and ATCC 33591 (MRSA strain from the American Type Culture Collection) were cultured on Mueller-Hinton II cation adjusted (MHA) medium in 90×90 mm square petri dishes. MHA containing ¼ of the MIC value of TR-700, TR-705, LZD, TIA, CLI, TET, or VAN, TMP/SMX throughout the plate and a continuous linear gradient of DAP across the plate was used to passage MW2. ATCC 33591 was passaged with ¼ of the MIC of a subset of these drugs (TR-700, TMP/SMX, and VAN). A DAP-only control passage group was included for both strains. DAP gradients were created by pouring two layers of media as previously described (Bryson, V., et al. 1952. Microbial selection. Science 116:45-51; Locke, J. B., et al., 2009. Antimicrob. Agents Chemother. 53:5265-5274). Following each passage the leading edge of growth (i.e., most resistant cells) was resuspended in phosphate buffered saline (PBS) to an absorbance of 0.30 OD600 and a 100 μl aliquot containing ˜3.0×10^7 CFU (colony-forming units) was spread on to the proceeding passage plate. The starting maximal DAP concentration was 2 μg/ml and was increased in two-fold increments when the leading edge of growth surpassed the half way point on the plate. A glycerol stock was made from the total cell population for each culture condition for each passage. Thirty serial passages were completed for each treatment group.

In the case of `CC1(C)S[C@@H]2[C@H](NC(=O)[C@H](N)c3ccccc3)C(=O)N2[C@H]1C(=O)O` [ampicillin], the “prevention of the emergence of daptomycin resistance” value [1] is listed as “prevented or greatly delayed selection of daptomycin-nonsusceptible mutants”.

For Gentamicin, the “increase of MIC in parallel to the increase in the daptomycin MIC” value [1] is given as “two-fold” and the “prevention of the emergence of daptomycin resistance” value [1] is given as “unable to prevent the emergence of daptomycin resistance”.

Work on `CN(C)[C@@H]1C(O)=C(C(N)=O)C(=O)[C@@]2(O)C(O)=C3C(=O)c4c(O)cccc4[C@@](C)(O)[C@H]3C[C@@H]12` [TET, tetracycline] yielded an MIC (S. aureus MW2 (NRS123); NRS123, passage 0, NRS123 WT) of 0.5 µg/mL (≈ 1.13 µM), an MIC (S. aureus MW2 (NRS123); NRS123, passage 5, selection group DAP) of 0.25 µg/mL (≈ 0.563 µM) and an MIC (S. aureus MW2 (NRS123); NRS123, passage 5, selection group DAP + CLI) of 0.5 µg/mL. It also gave an MIC (S. aureus MW2 (NRS123); NRS123, passage 5, selection group DAP + LZD) of 0.5 µg/mL, an MIC (S. aureus MW2 (NRS123); NRS123, passage 5, selection group DAP + TET) of 0.25 µg/mL and an MIC (S. aureus MW2 (NRS123); NRS123, passage 5, selection group DAP + TIA) of 0.5 µg/mL. The MIC (S. aureus MW2 (NRS123); NRS123, passage 5, selection group DAP + TMP/SMX) was 0.125 µg/mL, the MIC (S. aureus MW2 (NRS123); NRS123, passage 5, selection group DAP + TR-700) was 0.5 µg/mL and the MIC (S. aureus MW2 (NRS123); NRS123, passage 5, selection group DAP + TR-705) was 0.5 µg/mL. It also gave an MIC (S. aureus MW2 (NRS123); NRS123, passage 5, selection group DAP + VAN) of 0.25 µg/mL, an MIC (S. aureus MW2 (NRS123); NRS123, passage 10, selection group DAP) of 0.125 µg/mL (≈ 0.281 µM) and an MIC (S. aureus MW2 (NRS123); NRS123, passage 10, selection group DAP + CLI) of 0.5 µg/mL. It also gave an MIC (S. aureus MW2 (NRS123); NRS123, passage 10, selection group DAP + LZD) of 0.25 µg/mL, an MIC (S. aureus MW2 (NRS123); NRS123, passage 10, selection group DAP + TET) of 0.5 µg/mL and an MIC (S. aureus MW2 (NRS123); NRS123, passage 10, selection group DAP + TIA) of 0.25 µg/mL. It also gave an MIC (S. aureus MW2 (NRS123); NRS123, passage 10, selection group DAP + TMP/SMX) of 0.5 µg/mL, an MIC (S. aureus MW2 (NRS123); NRS123, passage 10, selection group DAP + TR-700) of 0.5 µg/mL and an MIC (S. aureus MW2 (NRS123); NRS123, passage 10, selection group DAP + TR-705) of 0.125 µg/mL. The MIC (S. aureus MW2 (NRS123); NRS123, passage 10, selection group DAP + VAN) was 0.25 µg/mL, the MIC (S. aureus MW2 (NRS123); NRS123, passage 15, selection group DAP) was 0.25 µg/mL (≈ 0.563 µM) and the MIC (S. aureus MW2 (NRS123); NRS123, passage 15, selection group DAP + CLI) was 0.125 µg/mL. For the same compound, the MIC (S. aureus MW2 (NRS123); NRS123, passage 15, selection group DAP + LZD) was 0.25 µg/mL, the MIC (S. aureus MW2 (NRS123); NRS123, passage 15, selection group DAP + TET) was 0.5 µg/mL and the MIC (S. aureus MW2 (NRS123); NRS123, passage 15, selection group DAP + TIA) was 0.25 µg/mL. For the same compound, the MIC (S. aureus MW2 (NRS123); NRS123, passage 15, selection group DAP + TMP/SMX) was 0.25 µg/mL, the MIC (S. aureus MW2 (NRS123); NRS123, passage 15, selection group DAP + TR-700) was 0.25 µg/mL and the MIC (S. aureus MW2 (NRS123); NRS123, passage 15, selection group DAP + TR-705) was 0.25 µg/mL. The MIC (S. aureus MW2 (NRS123); NRS123, passage 15, selection group DAP + VAN) was 0.25 µg/mL, the MIC (S. aureus MW2 (NRS123); NRS123, passage 20, selection group DAP) was 0.125 µg/mL (≈ 0.281 µM) and the MIC (S. aureus MW2 (NRS123); NRS123, passage 20, selection group DAP + CLI) was 0.125 µg/mL. It also gave an MIC (S. aureus MW2 (NRS123); NRS123, passage 20, selection group DAP + LZD) of 0.25 µg/mL, an MIC (S. aureus MW2 (NRS123); NRS123, passage 20, selection group DAP + TET) of 0.25 µg/mL and an MIC (S. aureus MW2 (NRS123); NRS123, passage 20, selection group DAP + TIA) of 0.25 µg/mL. It also gave an MIC (S. aureus MW2 (NRS123); NRS123, passage 20, selection group DAP + TMP/SMX) of 0.25 µg/mL, an MIC (S. aureus MW2 (NRS123); NRS123, passage 20, selection group DAP + TR-700) of 0.25 µg/mL and an MIC (S. aureus MW2 (NRS123); NRS123, passage 20, selection group DAP + TR-705) of 0.125 µg/mL. The MIC (S. aureus MW2 (NRS123); NRS123, passage 20, selection group DAP + VAN) was 0.25 µg/mL, the MIC (S. aureus MW2 (NRS123); NRS123, passage 25, selection group DAP) was 0.125 µg/mL (≈ 0.281 µM) and the MIC (S. aureus MW2 (NRS123); NRS123, passage 25, selection group DAP + CLI) was 0.125 µg/mL. For the same compound, the MIC (S. aureus MW2 (NRS123); NRS123, passage 25, selection group DAP + LZD) was 0.25 µg/mL, the MIC (S. aureus MW2 (NRS123); NRS123, passage 25, selection group DAP + TET) was 0.25 µg/mL and the MIC (S. aureus MW2 (NRS123); NRS123, passage 25, selection group DAP + TIA) was 0.25 µg/mL. The MIC (S. aureus MW2 (NRS123); NRS123, passage 25, selection group DAP + TMP/SMX) was 0.25 µg/mL, the MIC (S. aureus MW2 (NRS123); NRS123, passage 25, selection group DAP + TR-700) was 0.25 µg/mL and the MIC (S. aureus MW2 (NRS123); NRS123, passage 25, selection group DAP + TR-705) was 0.125 µg/mL. It also gave an MIC (S. aureus MW2 (NRS123); NRS123, passage 25, selection group DAP + VAN) of 0.25 µg/mL, an MIC (S. aureus MW2 (NRS123); NRS123, passage 30, selection group DAP) of 0.25 µg/mL (≈ 0.563 µM) and an MIC (S. aureus MW2 (NRS123); NRS123, passage 30, selection group DAP + CLI) of 0.25 µg/mL. The MIC (S. aureus MW2 (NRS123); NRS123, passage 30, selection group DAP + LZD) was 0.25 µg/mL, the MIC (S. aureus MW2 (NRS123); NRS123, passage 30, selection group DAP + TET) was 0.5 µg/mL and the MIC (S. aureus MW2 (NRS123); NRS123, passage 30, selection group DAP + TIA) was 0.5 µg/mL. It also gave an MIC (S. aureus MW2 (NRS123); NRS123, passage 30, selection group DAP + TMP/SMX) of 0.5 µg/mL, an MIC (S. aureus MW2 (NRS123); NRS123, passage 30, selection group DAP + TR-700) of 0.5 µg/mL and an MIC (S. aureus MW2 (NRS123); NRS123, passage 30, selection group DAP + TR-705) of 0.25 µg/mL. For the same compound, the MIC (S. aureus MW2 (NRS123); NRS123, passage 30, selection group DAP + VAN) was 0.5 µg/mL and the MIC (S. aureus MW2 (NRS123); NRS123, read-out: DAP MIC by the end of the experiment (selection of DAP^ns strains), MW2, passaged with DAP alone or with co-selecting agent at ¼ MIC, CLSI breakpoint) was over 1 µg/mL.
